Assay results reported in article PMC3448056, “2-Benzamido-N-(1H-benzo[d]imidazol-2-yl)thiazole-4-carboxamide derivatives as potent inhibitors of CK1δ/ε” (Amino Acids, 2012).
Several values for one entry are separate records, joined by “and”; a condition that tells them apart may be missing. Equal entries are not always repeated.

Legend:
Type in all cases: biochemical
human CK1ε = biological target: T1, human CK1ε (Homo sapiens, UniProt P49674); assay: In vitro kinase assay, CK1ε
T1 construct: purchased Invitrogen, Karlsruhe, Germany

GST-rat CK1δ = biological target: T2, GST-rat CK1δ (Rattus norvegicus, UniProt Q06486); assay: In vitro kinase assay, GST-rat CK1δ
T2 construct: made in house; host or cells: bacteria (pGEX-2T)

CK1δkd = biological target: T3, CK1δkd (Rattus norvegicus, UniProt Q06486); assay: In vitro kinase assay, CK1δ kinase domain; conditions: for activity against CK1δkd (in words, SAR discussion): kinase assays using a CK1 specific substrate
T3 construct: Recombinant CK1δ kinase domain (CK1δkd, NEB, Frankfurt am Main, Germany); purchased NEB, Frankfurt am Main, Germany
T3 sequence (Q06486 9-277 limits assumed): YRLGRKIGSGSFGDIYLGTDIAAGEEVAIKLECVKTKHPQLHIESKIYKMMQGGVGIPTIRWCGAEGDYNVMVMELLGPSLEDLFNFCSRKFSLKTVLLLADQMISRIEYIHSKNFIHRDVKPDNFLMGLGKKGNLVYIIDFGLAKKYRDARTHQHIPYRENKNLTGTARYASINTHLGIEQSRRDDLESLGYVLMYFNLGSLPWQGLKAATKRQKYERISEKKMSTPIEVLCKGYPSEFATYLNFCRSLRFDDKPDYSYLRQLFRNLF

GST-mouse CK1δTV1 = biological target: T4, GST-mouse CK1δTV1 (Mus musculus, UniProt Q9DC28); assay: In vitro kinase assay, GST-mouse CK1δTV1; conditions: 0.01 mM ATP, substrate GST-mouse p53^1-64; mean ± SD; read-out: IC50 (μM) GST-CK1δ TV1
T4 construct: made in house; host or cells: bacteria (pGEX-2T)
Source text: (§1) CK1δTV1 and 2 (transcription variants 1 and 2) were PCR amplified from mouse cDNA (5′-primer TV1 and 2: 5′-[…]-3′, 3′-primer TV1: 5′-[…]-3′, 3′-primer TV2: 5′-[…]-3′) and cloned into pcDNA3.1/V5-His© TOPO® TA cloning vector (Invitrogen, Karlsruhe, Germany) before being subcloned into pGEX-2T expression vector via BamHI to generate plasmids pGEX-2T-mouse CK1δTV1 (FP1170) and pGEX-2T-mouse CK1δTV2 (FP1171).
(§2) Expression and purification of the GST-fusion proteins GST-mouse p53^1–64 (FP267), GST-rat CK1δ (FP449), GST-rat CK1δ^M82F (FP1153), GST-mouse CK1δTV1 (FP1170), and GST-mouse CK1δTV2 (FP1171) was carried out as described elsewhere (Wolff et al. [2005]). Expression of fusion proteins FP1170 and 1171 was either performed at 37°C for 2 h, or at 15°C for 14 h. FP449 and FP1153 were always expressed at 15°C for 14 h.
(§3) In vitro kinase assays were carried out in the presence of various potential inhibitors of CK1δ at an ATP concentration of 0.01 mM and dimethyl sulfoxide (DMSO) solvent control as described previously (Knippschild et al. [1996]). Where indicated higher ATP concentrations (0.05, 0.1, 0.25 and 0.5 mM) were used. The fusion protein GST-mouse p53^1−64 (FP267) was used as substrate. Recombinant CK1δ kinase domain (CK1δkd, NEB, Frankfurt am Main, Germany), GST-rat CK1δ (FP449), GST-rat CK1δ^M82F (FP1153), GST-mouse CK1δTV1, GST-mouse CK1δTV2 and recombinant human CK1ε (Invitrogen, Karlsruhe, Germany) were used as sources of enzyme. Phosphorylated proteins were separated by SDS-PAGE and the protein bands were visualized on dried gels by autoradiography. The phosphorylated protein bands were excised and quantified by Cherenkov counting.

GST-rat CK1δ^M82F = biological target: T5, GST-rat CK1δ^M82F (Rattus norvegicus, UniProt Q06486, M82F); assay: In vitro kinase assay, gatekeeper mutant; conditions: inhibitor at its determined IC50 concentration (Fig. 7)
T5 construct: made in house; host or cells: bacteria (pGEX-2T)
T5 sequence (Q06486 1-415 M82F): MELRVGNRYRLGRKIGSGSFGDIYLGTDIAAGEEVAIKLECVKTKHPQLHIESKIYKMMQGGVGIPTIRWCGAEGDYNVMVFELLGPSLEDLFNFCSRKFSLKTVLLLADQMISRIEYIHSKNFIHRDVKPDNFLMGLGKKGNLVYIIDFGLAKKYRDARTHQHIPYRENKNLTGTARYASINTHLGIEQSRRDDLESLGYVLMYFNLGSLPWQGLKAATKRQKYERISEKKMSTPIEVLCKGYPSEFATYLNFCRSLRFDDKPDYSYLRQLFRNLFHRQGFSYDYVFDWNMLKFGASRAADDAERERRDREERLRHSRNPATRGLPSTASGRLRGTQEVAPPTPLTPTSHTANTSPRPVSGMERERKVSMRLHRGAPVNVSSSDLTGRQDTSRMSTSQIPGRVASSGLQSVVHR
Protocol: For the expression of wt rat CK1δ and rat CK1δ^M82F as glutathione S-transferase fusion proteins the plasmids pGEX-2T-CK1δ (FP449) (Knippschild et al. [1997]) and pGEX-2T-CK1δ^M82F (FP1153) (Peifer et al. [2009]) were used.
as §2, §3
Previously it has been shown that methionine 82 plays an important role as gatekeeper residue in the docking mode of isoxazoles to the ATP binding pocket since mutation of methionine 82 to phenylalanine blocks binding of this class of CK1δ specific inhibitors (Peifer et al. [2009]) while still binding ATP. Therefore, we now analyzed the effects of exchanging methionine 82 to phenylalanine on the ability of compounds 4, 5 and 6 to inhibit CK1δ activity.

GST-mouse CK1δTV2 = biological target: T6, GST-mouse CK1δTV2 (Mus musculus, UniProt Q9DC28); assay: In vitro kinase assay, GST-mouse CK1δTV2; conditions: 0.01 mM ATP, substrate GST-mouse p53^1-64; mean ± SD; read-out: IC50 (μM) GST-CK1δ TV2
T6 construct: made in house; host or cells: bacteria (pGEX-2T)
T6 sequence (Q9DC28 1-409 isoform Q9DC28-2): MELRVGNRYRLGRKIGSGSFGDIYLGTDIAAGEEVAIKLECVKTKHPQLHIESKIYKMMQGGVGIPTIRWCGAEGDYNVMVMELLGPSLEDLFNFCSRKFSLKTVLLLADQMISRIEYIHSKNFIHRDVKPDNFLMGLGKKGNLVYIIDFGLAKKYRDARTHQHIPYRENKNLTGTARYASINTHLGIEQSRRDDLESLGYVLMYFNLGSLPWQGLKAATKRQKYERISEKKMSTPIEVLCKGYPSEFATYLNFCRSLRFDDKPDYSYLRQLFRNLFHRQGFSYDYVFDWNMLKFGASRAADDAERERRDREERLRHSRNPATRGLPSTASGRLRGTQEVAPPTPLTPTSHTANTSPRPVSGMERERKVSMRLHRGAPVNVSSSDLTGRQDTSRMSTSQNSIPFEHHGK
Source text: as §1, §2, §3

[1] = 0.01 mM ATP, substrate GST-mouse p53^1-64, mean ± SD
[2] = symbol, tested range 10–0.005 μM

T2 sequence (Q06486 whole entry): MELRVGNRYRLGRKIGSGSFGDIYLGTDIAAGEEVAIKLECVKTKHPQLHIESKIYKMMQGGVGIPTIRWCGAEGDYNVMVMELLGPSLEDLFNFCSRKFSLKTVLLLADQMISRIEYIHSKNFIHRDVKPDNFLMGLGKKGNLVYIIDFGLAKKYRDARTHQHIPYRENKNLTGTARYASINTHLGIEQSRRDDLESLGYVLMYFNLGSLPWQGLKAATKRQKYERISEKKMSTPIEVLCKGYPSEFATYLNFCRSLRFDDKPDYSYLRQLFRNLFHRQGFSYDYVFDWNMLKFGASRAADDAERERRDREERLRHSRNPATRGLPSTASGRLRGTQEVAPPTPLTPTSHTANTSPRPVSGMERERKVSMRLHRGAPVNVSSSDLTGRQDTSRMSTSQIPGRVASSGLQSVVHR
T1 sequence (P49674 whole entry): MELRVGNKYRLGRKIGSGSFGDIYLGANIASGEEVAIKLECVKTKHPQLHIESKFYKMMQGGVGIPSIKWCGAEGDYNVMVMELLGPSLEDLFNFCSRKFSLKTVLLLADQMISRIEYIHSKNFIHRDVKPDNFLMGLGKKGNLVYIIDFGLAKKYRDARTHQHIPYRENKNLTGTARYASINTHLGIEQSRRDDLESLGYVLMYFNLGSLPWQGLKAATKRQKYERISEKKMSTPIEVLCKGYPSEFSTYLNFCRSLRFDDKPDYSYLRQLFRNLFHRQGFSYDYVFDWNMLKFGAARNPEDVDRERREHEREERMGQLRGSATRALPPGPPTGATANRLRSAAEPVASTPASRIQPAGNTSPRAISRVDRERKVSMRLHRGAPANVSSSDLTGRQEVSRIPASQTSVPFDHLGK
T4 sequence (Q9DC28 whole entry): as the sequence (Q06486 whole entry) above

Compound	IC50 (GST-rat CK1δ; [1]) [µM]	IC50 (CK1δkd; [1])	activity against CK1δkd (in words, SAR discussion) (CK1δkd)	further results
COC(=O)c1ccc2[nH]c(NC(=O)c3csc(NC(=O)c4ccccc4OC(F)(F)F)n3)nc2c1 [Compound 1, Methyl 2-(2-(2-(trifluoromethoxy)benzamido)-thiazole-4-carboxamido)-1H-benzo[d]imidazole-5-carboxylate]	1.97 ± 0.85	0.865 ± 0.14 µM	diminished activity	IC50 (human CK1ε; [1]): 0.496 ± 0.1 µM
CS(=O)(=O)c1ccc2[nH]c(NC(=O)c3csc(NC(=O)c4ccccc4OC(F)(F)F)n3)nc2c1 [Compound 2, N-(5-(Methylsulfonyl)-1H-benzo[d]imidazol-2-yl)-2-(2-(trifluoromethoxy)benzamido)thiazole-4-carboxamide]	5.19 ± 1.14	1.23 ± 0.41 µM	diminished activity	
Cn1c(NC(=O)c2csc(NC(=O)c3ccccc3OC(F)(F)F)n2)nc2ccccc21 [Compound 3, N-(1-Methyl-1H-benzo[d]imidazol-2-yl)-2-(2-(trifluoromethoxy)benz-amido)thiazole-4-carboxamide]			lost	IC50 (GST-rat CK1δ; [2]): > 10 µM; IC50 (CK1δkd; [2]): > 10 µM
O=C(Nc1nc(C(=O)Nc2nc3ccc(C(F)(F)F)cc3[nH]2)cs1)c1ccncc1 [Compound 4, 2-(Isonicotinamido)-N-(6-(trifluoromethyl)-1H-benzo[d]imidazol-2-yl)thiazole-4-carboxamide]	0.326 ± 0.19	0.409 ± 0.12 µM		IC50 (GST-mouse CK1δTV1): 0.18 ± 0.03 µM; inhibition of CK1ε in initial screen (human CK1ε; inhibitor 10 μM, 10 μM ATP (Fig. 1b)): significant inhibition; GST-wt CK1δ activity in the presence of inhibitor (GST-rat CK1δ; inhibitor at its determined IC50 concentration (Fig. 7)): clearly decreased; kinase activity of GST-CK1δ^M82F in comparison with inhibition of GST-wt CK1δ (GST-rat CK1δ^M82F): much more affected; IC50 (GST-mouse CK1δTV2): 0.505 ± 0.04 µM; inhibition of CK1δkd in initial screen (CK1δkd; inhibitor 10 μM, 10 μM ATP (Fig. 1a)): significant inhibition; mode of inhibition (CK1δkd; inhibitor at IC50 concentration, ATP 0.01-0.5 mM (Fig. 6)): ATP competitive inhibitors
O=C(Nc1nc2ccc(C(F)(F)F)cc2[nH]1)c1csc(NC(=O)c2ccco2)n1 [Compound 7, 2-(Furan-2-carboxamido)-N-(6-(trifluoromethyl)-1H-benzo[d]imidazol-2-yl)thiazole-4-carboxamide]	1.04 ± 0.31	0.542 ± 0.05 µM		
O=C(Nc1nc2ccccc2[nH]1)c1csc(NC(=O)c2ccccc2OC(F)(F)F)n1 [Compound 8, N-(1H-Benzo[d]imidazol-2-yl)-2-(2-(trifluoromethoxy)benzamido)thiazole-4-carboxamide]	0.935 ± 0.55	1.12 ± 0.19 µM		
O=C(Nc1nc2ccccc2s1)c1csc(NC(=O)c2ccccc2OC(F)(F)F)n1 [Compound 9, 2-(2-Trifluoromethoxy-benzoylamino)-thiazole-4-carboxylic acid benzothiazol-2-ylamide]	1.19 ± 0.39	1.12 µM and 0.73 µM		
O=C(Nc1nc2ccccc2o1)c1csc(NC(=O)c2ccccc2OC(F)(F)F)n1 [Compound 10, N-(Benzo[d]oxazol-2-yl)-2-(2-(trifluoromethoxy)benzamido)thiazole-4-carboxamide]	0.991 ± 0.21	0.647 ± 0.04 µM	kinase activity was even more decreased	
